Measurements: patent US20240301322A1, “FUNCTIONALIZED BIODEGRADABLE SURFACTANTS AND METHODS USE” (Locus Solutions IPCo, LLC, priority 2023, published 2024)

Tests used:
[1] = Surface tension at 1000 ppm; type: physicochemical
Description: (§1) Table 8 summarizes surface tension reduction at 1000 ppm and log reduction of P. aeruginosa at 0 and 10 min. (200 ppm) for two C12 cationic amino alcohol surfactants according to embodiments of the subject invention, LRO (R) and LKO (K), where LRO was produced through the coupling of a lauroyl chloride substrate and arginine ethyl ester and LKO was produced through the coupling of a lauroyl chloride substrate and lysine ethyl ester.
(§2) Table 9 summarizes surface tension reduction at 1000 ppm and log reduction of S. aureus and S. enterica at 0 and 10 min. (200 ppm) for four categories of cationic amino alcohol surfactants according to embodiments of the subject invention.

[2] = system: Staphylococcus aureus (Gram-positive); test: Microbial kill study, log reduction of Staphylococcus aureus; type: cell-based
Description: (§3) Studies were conducted to determine the antimicrobial capabilities of cationic arginine derivatized surfactants produced according to embodiments of the subject invention.
(§4) The test organisms were a mixture of Gram-negative and Gram-positive organisms, which served to validate the breadth of the spectrum of control and the utility of the technology for common pathogens of public health concern: Pseudomonas aeruginosa (Gram-negative), Staphylococcus aureus (Gram-positive) and Salmonella entericus (Gram-negative).
(§5) Test bacteria were grown at 32° C. for 24-48 hours in tryptic soy broth, then plated at a starting concentration of 10^7. PBS was used for dilution to achieve the desired cell concentration.
(§6) A stock solution of each antimicrobial treatment was created in water, which was then used to create each desired dilution for treatment: 25, 50, 200, 400, 500, 750, 1,000, 1,500, 2,000 and 4,000 ppm, in an appropriate volume of buffer. Buffers included 100 mM of citric acid, ammonium HCL, PBS or sodium bicarbonate.
(§7) The created cell dilution of 10^7 CFU/mL was mixed with either 100 uL to 900 uL of antimicrobial at the appropriate PPM, or 1-9 mL of antimicrobial at the appropriate PPM. The final concentration of the organism was […] once mixed with the antimicrobial.
(§8) The moment the organism was added to the antimicrobial, the timer was started for the desired time period (0, 2, 5, 6 or 10 min). At the end of the timer, the antimicrobial was neutralized, and dilutions were then plated onto TSA plates and incubated for 24-48 hours at 32° C.
(§9) The negative control comprised 0.1 mL from the organism stock plated onto a TSA plate. For the positive control a serial dilution was set up with a starting concentration of 400 PPM quaternary ammonium compound (QAC) and organism. Dilutions were plated at 102, 103 and 104 CFU/mL.
(§10) After 24 to 48 hours of incubation, plates were removed from the incubator and colony numbers were counted.
(§11) The below scale is commonly used in determining a compound's efficacy, where a greater than or equal to 6-fold logarithmic (≥6 log) reduction in less than 10 minutes is needed for disinfection.
as §2
(§12) The surfactants were produced through the coupling of octanoyl chloride (C8); decanoyl chloride (C10); lauroyl chloride (C12); myristyroyl chloride (C14); palmitoyl chloride (C16); or a linear sophorolipid (SLP), with: arginine ethyl ester (R), histidine ethyl ester (H) or lysine ethyl ester (K).

[3] = system: Salmonella enterica (Gram-negative); test: Microbial kill study, log reduction of Salmonella enterica; type: cell-based
Description: as §3, §4, §5, §6, §7, §8, §9, §10, §11, §2, §12

[4] = system: Pseudomonas aeruginosa (Gram-negative); test: Microbial kill study, log reduction of Pseudomonas aeruginosa; type: cell-based
Description: as §3, §4, §5, §6, §7, §8, §9, §10, §11, §1

[5] = system: Staphylococcus aureus (G+); test: Stability study at pH 7 over 4 days, log reduction of S. aureus; type: cell-based; conditions: pH 7, 100 ppm; for Activity Reduction S. aureus (G+) 100 ppm 5 min: loss of log reduction Day 0 to Day 4
Description: FIGS. 3A-3B depict a comparison of pH stability between lauryl arginine ethyl ester (LRE) and a cationic amino alcohol surfactant according to an embodiment of the subject invention (LRO) in different conditions of incubation at pH 7 (A) and pH 10 (B). Oven=45° C., 50% relative humidity; ambient=room temperature.
as §3, §4, §5, §6, §7, §8, §9, §10, §11
Tables 10-11 summarize the pH stability over 4 days for a C12 cationic amino alcohol surfactant according to embodiments of the subject invention, LRO (RO), compared with LAE (RE), where LRO was produced through the coupling of a lauroyl chloride substrate and arginine ethyl ester. Log reductions were measured according to the procedures described above in Example 7.

Salmonella enterica (G-) = test: Stability study at pH 7 over 4 days, log reduction of S. enterica; type: cell-based; conditions: pH 7, 100 ppm; for Activity Reduction S. enterica (G-) 100 ppm 5 min: loss of log reduction Day 0 to Day 4

With CCCCCCCC(=O)NC(CO)Cc1c[nH]cn1 (centres unmarked) [C8 H O] the “Surface Tension 1000 ppm” value ([1]; Table 9) was 57.78 mN/m, the “Log Reduction S. aureus (G+) 200 ppm, 0 min” value [2] was 0.00 and the “Log Reduction S. aureus (G+) 200 ppm, 10 min” value [2] was 0.00. The “Log Reduction S. enterica (G-) 200 ppm, 0 min” value [3] was 0.00 and the “Log Reduction S. enterica (G-) 200 ppm, 10 min” value [3] was 0.00.
With CCCCCCCC(=O)NC(CO)CCCNC(=N)N (centres unmarked) [C8 R O] the “Surface Tension 1000 ppm” value ([1]; Table 9) was 32.15 mN/m, the “Log Reduction S. aureus (G+) 200 ppm, 0 min” value [2] was 0.00 and the “Log Reduction S. aureus (G+) 200 ppm, 10 min” value [2] was 0.87. For the same compound, the “Log Reduction S. enterica (G-) 200 ppm, 0 min” value [3] was 0.00 and the “Log Reduction S. enterica (G-) 200 ppm, 10 min” value [3] was 0.00.
For CCCCCCCCCC(=O)NC(CO)Cc1c[nH]cn1 (centres unmarked) [C10 H O], the “Surface Tension 1000 ppm” value ([1]; Table 9) was 50.30 mN/m, the “Log Reduction S. aureus (G+) 200 ppm, 0 min” value [2] was 0.00 and the “Log Reduction S. aureus (G+) 200 ppm, 10 min” value [2] was 0.00. For the same compound, the “Log Reduction S. enterica (G-) 200 ppm, 0 min” value [3] was 0.00 and the “Log Reduction S. enterica (G-) 200 ppm, 10 min” value [3] was 0.00.
For CCCCCCCCCC(=O)NC(CO)CCCNC(=N)N (centres unmarked) [C10 R O], the “Surface Tension 1000 ppm” value ([1]; Table 9) was 28.30 mN/m, the “Log Reduction S. aureus (G+) 200 ppm, 0 min” value [2] was 0.00 and the “Log Reduction S. aureus (G+) 200 ppm, 10 min” value [2] was 6.30. The “Log Reduction S. enterica (G-) 200 ppm, 0 min” value [3] was 0.00 and the “Log Reduction S. enterica (G-) 200 ppm, 10 min” value [3] was 6.30.
For CCCCCCCCCCCC(=O)NC(CO)Cc1c[nH]cn1 (centres unmarked) [C12 H O], the “Surface Tension 1000 ppm” value ([1]; Table 9) was 27.36 mN/m, the “Log Reduction S. aureus (G+) 200 ppm, 0 min” value [2] was 0.00 and the “Log Reduction S. aureus (G+) 200 ppm, 10 min” value [2] was 0.00. The “Log Reduction S. enterica (G-) 200 ppm, 0 min” value [3] was 0.00 and the “Log Reduction S. enterica (G-) 200 ppm, 10 min” value [3] was 0.00.
In the case of CCCCCCCCCCCC(=O)NC(CO)CCCCN (centres unmarked) [C12 K O], the “Surface Tension 1000 ppm” value ([1]; Table 8) is reported as 27.82 mN/m, the “Surface Tension 1000 ppm” value ([1]; Table 9) is reported as 27.82 mN/m and the “Log Reduction S. aureus (G+) 200 ppm, 0 min” value [2] is reported as 0.00. The “Log Reduction S. aureus (G+) 200 ppm, 10 min” value [2] was 4.60, the “Log Reduction S. enterica (G-) 200 ppm, 0 min” value [3] was 0.00 and the “Log Reduction S. enterica (G-) 200 ppm, 10 min” value [3] was 6.16. The “Log Reduction 200 ppm, 0 min (Pseudomonas aeruginosa)” value [4] was 0.54 and the “Log Reduction 200 ppm, 10 min (Pseudomonas aeruginosa)” value [4] was 6.25.
In the case of CCCCCCCCCCCC(=O)N[C@@H](CCCNC(=N)N)C(=O)OCC [C12 R E, lauroyl arginine ethyl ester, reference compound], the “Log Reduction S. aureus (G+) 100 ppm, 0 min” value ([5]; Day 0 Stability) is reported as 0.00, the “Log Reduction S. aureus (G+) 100 ppm, 2 min” value ([5]; Day 0 Stability) is reported as 6.53 and the “Log Reduction S. aureus (G+) 100 ppm, 5 min” value ([5]; Day 0 Stability) is reported as 6.53. The “Log Reduction S. aureus (G+) 100 ppm, 0 min” value ([5]; Day 4 Accelerated Stability) was 0.00, the “Log Reduction S. aureus (G+) 100 ppm, 2 min” value ([5]; Day 4 Accelerated Stability) was 0.93 and the “Log Reduction S. aureus (G+) 100 ppm, 5 min” value ([5]; Day 4 Accelerated Stability) was 1.14. The “Activity Reduction S. aureus (G+) 100 ppm 5 min” value [5] was 82.54%, the “Log Reduction S. enterica (G-) 100 ppm, 0 min” value (Salmonella enterica (G-); Day 0 Stability) was 0.00 and the “Log Reduction S. enterica (G-) 100 ppm, 2 min” value (Salmonella enterica (G-); Day 0 Stability) was 6.42. For the same compound, the “Log Reduction S. enterica (G-) 100 ppm, 5 min” value (Salmonella enterica (G-); Day 0 Stability) was 6.42, the “Log Reduction S. enterica (G-) 100 ppm, 0 min” value (Salmonella enterica (G-); Day 4 Accelerated Stability) was 0.00 and the “Log Reduction S. enterica (G-) 100 ppm, 2 min” value (Salmonella enterica (G-); Day 4 Accelerated Stability) was 0.00. The “Log Reduction S. enterica (G-) 100 ppm, 5 min” value (Salmonella enterica (G-); Day 4 Accelerated Stability) was 0.00 and the “Activity Reduction S. enterica (G-) 100 ppm 5 min” value (Salmonella enterica (G-)) was 100.00%.
For CCCCCCCCCCCC(=O)NC(CO)CCCNC(=N)N (centres unmarked) [C12 R O, lauryl argininol alcohol], the “Surface Tension 1000 ppm” value ([1]; Table 8) was 23.75 mN/m, the “Surface Tension 1000 ppm” value ([1]; Table 9) was 23.75 mN/m and the “Log Reduction S. aureus (G+) 200 ppm, 0 min” value [2] was 0.00. For the same compound, the “Log Reduction S. aureus (G+) 200 ppm, 10 min” value [2] was 6.24, the “Log Reduction S. enterica (G-) 200 ppm, 0 min” value [3] was 0.00 and the “Log Reduction S. enterica (G-) 200 ppm, 10 min” value [3] was 6.20. For the same compound, the “Log Reduction S. aureus (G+) 100 ppm, 0 min” value ([5]; Day 0 Stability) was 0.00, the “Log Reduction S. aureus (G+) 100 ppm, 2 min” value ([5]; Day 0 Stability) was 2.17 and the “Log Reduction S. aureus (G+) 100 ppm, 5 min” value ([5]; Day 0 Stability) was 6.53. The “Log Reduction S. aureus (G+) 100 ppm, 0 min” value ([5]; Day 4 Accelerated Stability) was 0.00, the “Log Reduction S. aureus (G+) 100 ppm, 2 min” value ([5]; Day 4 Accelerated Stability) was 0.76 and the “Log Reduction S. aureus (G+) 100 ppm, 5 min” value ([5]; Day 4 Accelerated Stability) was 6.53. For the same compound, the “Activity Reduction S. aureus (G+) 100 ppm 5 min” value [5] was 0.00%, the “Log Reduction S. enterica (G-) 100 ppm, 0 min” value (Salmonella enterica (G-); Day 0 Stability) was 0.00 and the “Log Reduction S. enterica (G-) 100 ppm, 2 min” value (Salmonella enterica (G-); Day 0 Stability) was 1.32. The “Log Reduction S. enterica (G-) 100 ppm, 5 min” value (Salmonella enterica (G-); Day 0 Stability) was 2.36, the “Log Reduction S. enterica (G-) 100 ppm, 0 min” value (Salmonella enterica (G-); Day 4 Accelerated Stability) was 0.00 and the “Log Reduction S. enterica (G-) 100 ppm, 2 min” value (Salmonella enterica (G-); Day 4 Accelerated Stability) was 0.00. The “Log Reduction S. enterica (G-) 100 ppm, 5 min” value (Salmonella enterica (G-); Day 4 Accelerated Stability) was 0.79, the “Activity Reduction S. enterica (G-) 100 ppm 5 min” value (Salmonella enterica (G-)) was 66.53% and the “Log Reduction 200 ppm, 0 min (Pseudomonas aeruginosa)” value [4] was 1.85. For the same compound, the “Log Reduction 200 ppm, 10 min (Pseudomonas aeruginosa)” value [4] was 6.25.
With CCCCCCCCCCCCCC(=O)NC(CO)Cc1c[nH]cn1 (centres unmarked) [C14 H O] the “Surface Tension 1000 ppm” value ([1]; Table 9) was 22.77 mN/m, the “Log Reduction S. aureus (G+) 200 ppm, 0 min” value [2] was 0.00 and the “Log Reduction S. aureus (G+) 200 ppm, 10 min” value [2] was 0.00. The “Log Reduction S. enterica (G-) 200 ppm, 0 min” value [3] was 0.00 and the “Log Reduction S. enterica (G-) 200 ppm, 10 min” value [3] was 0.00.
For CCCCCCCCCCCCCC(=O)NC(CO)CCCNC(=N)N (centres unmarked) [C14 R O], the “Surface Tension 1000 ppm” value ([1]; Table 9) was 39.54 mN/m, the “Log Reduction S. aureus (G+) 200 ppm, 0 min” value [2] was 0.00 and the “Log Reduction S. aureus (G+) 200 ppm, 10 min” value [2] was 6.36. For the same compound, the “Log Reduction S. enterica (G-) 200 ppm, 0 min” value [3] was 0.00 and the “Log Reduction S. enterica (G-) 200 ppm, 10 min” value [3] was 6.11.
In the case of CCCCCCCCCCCCCCCC(=O)NC(CO)CCCNC(=N)N (centres unmarked) [C16 R O], the “Surface Tension 1000 ppm” value ([1]; Table 9) is reported as 37.63 mN/m, the “Log Reduction S. aureus (G+) 200 ppm, 0 min” value [2] is reported as 0.00 and the “Log Reduction S. aureus (G+) 200 ppm, 10 min” value [2] is reported as 4.10. The “Log Reduction S. enterica (G-) 200 ppm, 0 min” value [3] was 0.00 and the “Log Reduction S. enterica (G-) 200 ppm, 10 min” value [3] was 2.86.
With “linear sophorolipid argininol amide [SLP R O]” the “Surface Tension 1000 ppm” value ([1]; Table 9) was 41.89 mN/m, the “Log Reduction S. aureus (G+) 200 ppm, 0 min” value [2] was 0.00 and the “Log Reduction S. aureus (G+) 200 ppm, 10 min” value [2] was 2.23. The “Log Reduction S. enterica (G-) 200 ppm, 0 min” value [3] was 0.00 and the “Log Reduction S. enterica (G-) 200 ppm, 10 min” value [3] was 0.00.
